Target: KAT2A (Homo sapiens, UniProt Q92830)
Test: KAT2A degradation, Western Blot (Jess), MOLM-13 cells
Assay type: cell-based
Design: degrader, Western blot
Details: MOLM-13 cells, KAT2A, 24 h, Western Blot, vs DMSO; read-out: KAT2A MOLM-13 DC50
Outline: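 MOLM-13 cells in RPMI 1640/20% FBS were treated with compound for 24 h at 37 °C. RIPA lysates (4 μg) were run on a capillary Western (Jess) with anti-KAT2A antibody and chemiluminescent detection. DC50 comes from percent protein reduction versus DMSO control.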

Chain of KAT2A (Q92830 whole entry): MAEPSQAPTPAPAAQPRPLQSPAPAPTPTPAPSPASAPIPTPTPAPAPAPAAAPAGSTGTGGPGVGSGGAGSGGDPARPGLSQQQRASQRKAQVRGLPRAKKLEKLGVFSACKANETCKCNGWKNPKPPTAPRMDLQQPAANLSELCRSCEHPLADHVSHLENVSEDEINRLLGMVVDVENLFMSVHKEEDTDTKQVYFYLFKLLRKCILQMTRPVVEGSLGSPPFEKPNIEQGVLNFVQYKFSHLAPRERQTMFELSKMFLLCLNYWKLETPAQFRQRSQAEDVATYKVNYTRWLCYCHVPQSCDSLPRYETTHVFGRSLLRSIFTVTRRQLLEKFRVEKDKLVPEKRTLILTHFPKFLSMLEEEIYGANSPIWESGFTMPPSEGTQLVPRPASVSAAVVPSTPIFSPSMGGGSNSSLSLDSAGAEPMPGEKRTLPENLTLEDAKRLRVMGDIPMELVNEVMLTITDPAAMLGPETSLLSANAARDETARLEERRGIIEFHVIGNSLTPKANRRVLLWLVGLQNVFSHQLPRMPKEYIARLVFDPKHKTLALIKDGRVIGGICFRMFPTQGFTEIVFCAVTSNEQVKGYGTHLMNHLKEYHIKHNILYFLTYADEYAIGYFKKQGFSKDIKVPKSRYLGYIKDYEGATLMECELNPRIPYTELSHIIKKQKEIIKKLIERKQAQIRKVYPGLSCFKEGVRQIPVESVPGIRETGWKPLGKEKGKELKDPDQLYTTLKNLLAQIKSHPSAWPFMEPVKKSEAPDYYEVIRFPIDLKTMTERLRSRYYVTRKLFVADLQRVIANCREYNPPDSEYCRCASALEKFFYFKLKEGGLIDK

| DC50 | SMILES |
| --- | --- |
| < 1 nM | CN1C[C@H](Nc2cnn(C)c(=O)c2Br)C[C@H](c2ccc(CN3CCC(c4ccc5c(c4)CN(C4CCC(=O)NC4=O)C5=O)C3)cc2)C1 (some centres unmarked) [Compound 113] |
| < 1 nM | CN1C[C@H](Nc2cnn(C)c(=O)c2Br)C[C@H](c2ccc(C(=O)N3CCC(c4ccc(NC5CCC(=O)NC5=O)cc4)CC3)cc2)C1 (some centres unmarked) [Compound 115] |
| < 1 nM | CN1C[C@H](Nc2cnn(C)c(=O)c2Br)C[C@H](c2ccc(CN3CCN(c4cccc5c4CN(C4CCC(=O)NC4=O)C5=O)CC3)cc2)C1 (some centres unmarked) [Compound 116] |
| < 1 nM | CN1C[C@H](Nc2cnn(C)c(=O)c2Br)C[C@H](c2ccc(COC3CN(c4ccc5c(c4)C(=O)N(C4CCC(=O)NC4=O)C5=O)C3)cc2)C1 (some centres unmarked) [Compound 117] |
| < 1 nM | CN1C[C@H](Nc2cnn(C)c(=O)c2Br)C[C@H](c2ccc(C(=O)N3CCC4(CCN(CC5CCN(c6ccc7c(c6)C(=O)N(C6CCC(=O)NC6=O)C7=O)CC5)C4)C3)cc2)C1 (some centres unmarked) [Compound 118] |
| 1 to 30 nM | CN1C[C@H](Nc2cnn(C)c(=O)c2Br)C[C@H](c2ccc(C(=O)N3CCC(Oc4cccc(C5CCC(=O)NC5=O)c4)CC3)cc2)C1 (some centres unmarked) [Compound 119] |
| 1 to 30 nM | Cc1ccc(OC2CCN(C(=O)c3ccc([C@H]4C[C@@H](Nc5cnn(C)c(=O)c5Br)CN(C)C4)cc3)CC2)cc1C1CCC(=O)NC1=O (some centres unmarked) [Compound 121] |
| 1 to 30 nM | Cc1ccc(OC2CCN(Cc3ccc([C@H]4C[C@@H](Nc5cnn(C)c(=O)c5Br)CN(C)C4)cc3)CC2)cc1C1CCC(=O)NC1=O (some centres unmarked) [Compound 122] |
| 1 to 30 nM | CN1C[C@H](Nc2cnn(C)c(=O)c2Br)C[C@H](c2ccc(CN3CCC4(CC3)CN(c3cccc(C5CCC(=O)NC5=O)c3)C4)cc2)C1 (some centres unmarked) [Compound 127] |
| 1 to 30 nM | CN1C[C@H](Nc2cnn(C)c(=O)c2Br)C[C@H](c2ccc(C(=O)N3CCC4(CC3)CN(c3cccc(C5CCC(=O)NC5=O)c3)C4)cc2)C1 (some centres unmarked) [Compound 128] |
| 1 to 30 nM | CN1C[C@H](Nc2cnn(C)c(=O)c2C2CC2)C[C@H](c2ccc(CN3CCC(c4ccc5c(c4)CN(C4CCC(=O)NC4=O)C5=O)CC3)cc2)C1 (some centres unmarked) [Compound 129] |
| 1 to 30 nM | CN1C[C@H](Nc2cnn(C)c(=O)c2Br)C[C@H](c2ccc(CN3CCC(c4ccc5c(c4)C(=O)N(C4CCC(=O)NC4=O)C5=O)C3)cc2)C1 (some centres unmarked) [Compound 130] |
| 1 to 30 nM | CN1C[C@H](Nc2cnn(C)c(=O)c2Br)C[C@H](c2ccc(C(=O)N3CCC(Oc4ccc(F)c(C5CCC(=O)NC5=O)c4)CC3)cc2)C1 (some centres unmarked) [Compound 131] |
| < 1 nM | CN1C[C@H](Nc2cnn(C)c(=O)c2Br)C[C@H](c2ccc(CN3CCC(Oc4ccc(F)c(C5CCC(=O)NC5=O)c4)CC3)cc2)C1 (some centres unmarked) [Compound 132] |
| 1 to 30 nM | CN1C[C@H](Nc2cnn(C)c(=O)c2Br)C[C@H](c2ccc(CN3CCC4(CC3)CN(c3ccc(C5CCC(=O)NC5=O)cc3)C4)cc2)C1 (some centres unmarked) [Compound 133] |
| < 1 nM | CN1C[C@H](Nc2cnn(C)c(=O)c2Br)C[C@H](c2ccc(CN3CCC4(CC3)CCN(c3cccc(C5CCC(=O)NC5=O)c3)CC4)cc2)C1 (some centres unmarked) [Compound 134] |
| < 1 nM | CN1C[C@H](Nc2cnn(C)c(=O)c2Br)C[C@H](c2ccc(C(=O)N3CCC4(CC3)CCN(c3cccc(C5CCC(=O)NC5=O)c3)CC4)cc2)C1 (some centres unmarked) [Compound 135] |
| > 30 nM | CN1C[C@H](Nc2cnn(C)c(=O)c2Br)C[C@H](c2ccc(C(=O)N3CCC(c4ccc(CN5CCC(=O)NC5=O)cc4)CC3)cc2)C1 [Compound 136] |
| 1 to 30 nM | CN1C[C@H](Nc2cnn(C)c(=O)c2Br)C[C@H](c2ccc(C(=O)N3CCN(c4ccc5c(c4)n(C)c(=O)n5C4CCC(=O)NC4=O)CC3)cc2)C1 (some centres unmarked) [Compound 137] |
| < 1 nM | CN1C[C@H](Nc2cnn(C)c(=O)c2Br)C[C@H](c2ccc(C(=O)N3CC(c4ccc5c(c4)CN(C4CCC(=O)NC4=O)C5=O)C3)cc2)C1 (some centres unmarked) [Compound 138] |
| < 1 nM | CN1C[C@H](Nc2cnn(C)c(=O)c2Br)C[C@H](c2ccc(CN3CC(c4ccc5c(c4)CN(C4CCC(=O)NC4=O)C5=O)C3)cc2)C1 (some centres unmarked) [Compound 139] |
| > 30 nM | CN1C[C@H](Nc2cnn(C)c(=O)c2Br)C[C@H](c2ccc(C(=O)N3CCC(c4cccc(CN5CCC(=O)NC5=O)c4)CC3)cc2)C1 [Compound 140] |
| < 1 nM | CN1C[C@H](Nc2cnn(C)c(=O)c2Cl)C[C@H](c2ccc(CN3CC(c4ccc5c(c4)CN(C4CCC(=O)NC4=O)C5=O)C3)cc2)C1 (some centres unmarked) [Compound 141] |
| 1 to 30 nM | CN1C[C@H](Nc2cnn(C)c(=O)c2Br)C[C@H](c2ccc(C(=O)N3CCN(c4cccc5c4n(C)c(=O)n5C4CCC(=O)NC4=O)CC3)cc2)C1 (some centres unmarked) [Compound 142] |
| < 1 nM | CN1C[C@H](Nc2cnn(C)c(=O)c2Br)C[C@H](c2ccc(C(=O)N3CCN(c4ccc(F)c(C5CCC(=O)NC5=O)c4)CC3)cc2)C1 (some centres unmarked) [Compound 143] |
| < 1 nM | CN1C[C@H](Nc2cnn(C)c(=O)c2Br)C[C@H](c2ccc(C(=O)N3CC4(CCN(c5ccc(C6CCC(=O)NC6=O)cc5)CC4)C3)cc2)C1 (some centres unmarked) [Compound 144] |
| 1 to 30 nM | CN1C[C@H](Nc2cnn(C)c(=O)c2Br)C[C@H](c2ccc(C(=O)N3CC4(C3)CN(c3ccc(C5CCC(=O)NC5=O)cc3)C4)cc2)C1 (some centres unmarked) [Compound 147] |

| DC50 | SMILES |
| --- | --- |
| 1 to 30 nM | CN1C[C@H](Nc2cnn(C)c(=O)c2Br)C[C@H](c2ccc(C(=O)N3CC4(C3)CN(c3cccc(C5CCC(=O)NC5=O)c3)C4)cc2)C1 (some centres unmarked) [Compound 148] |
| 1 to 30 nM | CN1C[C@H](Nc2cnn(C)c(=O)c2Br)C[C@H](c2ccc(C(=O)N3CCN(C4CCN(C5CCC(=O)NC5=O)CC4)CC3)cc2)C1 (some centres unmarked) [Compound 149] |
| < 1 nM | Cc1c(N[C@@H]2C[C@H](c3ccc(CN4CCC(c5ccc6c(c5)CN(C5CCC(=O)NC5=O)C6=O)CC4)cc3)CN(C)C2)cnn(C)c1=O (some centres unmarked) [Compound 150] |
| 1 to 30 nM | CN1C[C@H](Nc2cnn(C)c(=O)c2Br)C[C@H](c2ccc(COc3ccc(C4CCC(=O)NC4=O)cc3)cc2)C1 (some centres unmarked) [Compound 151] |
| 1 to 30 nM | CN1C[C@H](Nc2cnn(C)c(=O)c2Br)C[C@H](c2ccc(C(=O)N3CCN(c4ccc(F)c(C5CCC(=O)NC5=O)c4)CC3)cc2)C1 (some centres unmarked) [Compound 153] |
| < 1 nM | CN1C[C@H](Nc2cnn(C)c(=O)c2Br)C[C@H](c2ccc(CN3CC4(CCN(c5ccc(C6CCC(=O)NC6=O)cc5)CC4)C3)cc2)C1 (some centres unmarked) [Compound 154] |
| < 1 nM | CN1C[C@H](Nc2cnn(C)c(=O)c2Br)C[C@H](c2ccc(CN3CCC4(CC3)CCN(c3ccc(C5CCC(=O)NC5=O)c(F)c3)CC4)cc2)C1 (some centres unmarked) [Compound 156] |
| < 1 nM | CN1C[C@H](Nc2cnn(C)c(=O)c2Br)C[C@H](c2ccc(CN3CCC4(CC3)CCN(c3ccc(C5CCC(=O)NC5=O)cc3F)CC4)cc2)C1 (some centres unmarked) [Compound 158] |
| 1 to 30 nM | CN1C[C@H](Nc2cnn(C)c(=O)c2Br)C[C@H](c2ccc(CN3CC4(C3)CN(c3ccc(C5CCC(=O)NC5=O)cc3)C4)cc2)C1 (some centres unmarked) [Compound 159] |
| > 30 nM | CN1C[C@H](Nc2cnn(C)c(=O)c2Br)C[C@H](c2ccc(CN3CC4(C3)CN(c3cccc(C5CCC(=O)NC5=O)c3)C4)cc2)C1 (some centres unmarked) [Compound 160] |
| > 30 nM | CN1C[C@H](Nc2cnn(C)c(=O)c2Br)C[C@H](c2ccc(C(=O)N3CCC(N4CCN(C5CCC(=O)NC5=O)CC4)CC3)cc2)C1 (some centres unmarked) [Compound 161] |
| < 1 nM | CN1C[C@H](Nc2cnn(C)c(=O)c2Cl)C[C@H](c2ccc(C(=O)N3CCC4(CC3)CCN(c3cccc(C5CCC(=O)NC5=O)c3)CC4)cc2)C1 (some centres unmarked) [Compound 163] |
| 1 to 30 nM | CN1C[C@H](Nc2cnn(C)c(=O)c2Cl)C[C@H](c2ccc(CN3Cc4cc5c(cc4C3)C(=O)N(C3CCC(=O)NC3=O)C5=O)cc2)C1 (some centres unmarked) [Compound 164] |
| < 1 nM | Cc1ccc(N2CCN(Cc3ccc([C@H]4C[C@@H](Nc5cnn(C)c(=O)c5Br)CN(C)C4)cc3)CC2)cc1C1CCC(=O)NC1=O (some centres unmarked) [Compound 165] |
| < 1 nM | Cc1cc(N2CCC3(CCN(Cc4ccc([C@H]5C[C@@H](Nc6cnn(C)c(=O)c6Br)CN(C)C5)cc4)CC3)CC2)ccc1C1CCC(=O)NC1=O (some centres unmarked) [Compound 166] |
| < 1 nM | CN1C[C@H](Nc2cnn(C)c(=O)c2Br)C[C@H](c2ccc(C(=O)N3CCC4(CC3)CCN(c3ccc(F)c(C5CCC(=O)NC5=O)c3)CC4)cc2)C1 (some centres unmarked) [Compound 169] |
| < 1 nM | CN1C[C@H](Nc2cnn(C)c(=O)c2Cl)C[C@H](c2ccc(CN3CCC4(CC3)CCN(c3cccc(C5CCC(=O)NC5=O)c3)CC4)cc2)C1 (some centres unmarked) [Compound 170] |
| > 30 nM | C#Cc1c(N[C@@H]2C[C@H](c3ccc(CN4CCC(c5ccc6c(c5)CN(C5CCC(=O)NC5=O)C6=O)CC4)cc3)CN(C)C2)cnn(C)c1=O (some centres unmarked) [Compound 171] |
| 1 to 30 nM | CN1C[C@H](Nc2cnn(C)c(=O)c2Br)C[C@H](c2ccc(C(=O)N3CCC(c4ccc5c(c4)CN(C4CCC(=O)NC4=O)C5=O)CC3)cc2)C1 (some centres unmarked) [Compound 172] |
| 1 to 30 nM | CN1C[C@H](Nc2cnn(C)c(=O)c2Br)C[C@H](c2ccc(CN3CCC(c4ccc(OC5CCC(=O)NC5=O)cc4)CC3)cc2)C1 (some centres unmarked) [Compound 173] |
| < 1 nM | CN1C[C@H](Nc2cnn(C)c(=O)c2Br)C[C@H](c2ccc(CN3CCC4(CC3)CCN(c3ccc(F)c(C5CCC(=O)NC5=O)c3)CC4)cc2)C1 (some centres unmarked) [Compound 174] |
| < 1 nM | CN1C[C@H](Nc2cnn(C)c(=O)c2Cl)C[C@H](c2ccc(C(=O)N3CCN(c4ccc5c(c4)C(=O)N(C4CCC(=O)NC4=O)C5=O)CC3)cc2)C1 (some centres unmarked) [Compound 176] |
| > 30 nM | CN1C[C@H](Nc2cnn(C)c(=O)c2Br)C[C@H](c2ccc(C(=O)N3CCN(CC4CCN(C5CCC(=O)NC5=O)CC4)CC3)cc2)C1 (some centres unmarked) [Compound 177] |
| 1 to 30 nM | Cc1ccc(N2CCC3(CCN(Cc4ccc([C@H]5C[C@@H](Nc6cnn(C)c(=O)c6Br)CN(C)C5)cc4)CC3)CC2)cc1C1CCC(=O)NC1=O (some centres unmarked) [Compound 178] |
| < 1 nM | Cc1ccc(N2CCC3(CCN(C(=O)c4ccc([C@H]5C[C@@H](Nc6cnn(C)c(=O)c6Br)CN(C)C5)cc4)CC3)CC2)cc1C1CCC(=O)NC1=O (some centres unmarked) [Compound 179] |
| < 1 nM | CN1C[C@H](Nc2cnn(C)c(=O)c2Br)C[C@H](c2ccc(CN3CCN(c4ccc5c(c4)oc(=O)n5C4CCC(=O)NC4=O)CC3)cc2)C1 (some centres unmarked) [Compound 180] |
